{"source": "patent US8501953B2", "about": "“PKM2 modulators for use in the treatment of cancer” (Agios Pharmaceuticals, Inc, priority 2009, dated 2013)"}
{"target": "PKM2 (Homo sapiens, UniProt P14618)", "sequence (P14618 whole entry)": "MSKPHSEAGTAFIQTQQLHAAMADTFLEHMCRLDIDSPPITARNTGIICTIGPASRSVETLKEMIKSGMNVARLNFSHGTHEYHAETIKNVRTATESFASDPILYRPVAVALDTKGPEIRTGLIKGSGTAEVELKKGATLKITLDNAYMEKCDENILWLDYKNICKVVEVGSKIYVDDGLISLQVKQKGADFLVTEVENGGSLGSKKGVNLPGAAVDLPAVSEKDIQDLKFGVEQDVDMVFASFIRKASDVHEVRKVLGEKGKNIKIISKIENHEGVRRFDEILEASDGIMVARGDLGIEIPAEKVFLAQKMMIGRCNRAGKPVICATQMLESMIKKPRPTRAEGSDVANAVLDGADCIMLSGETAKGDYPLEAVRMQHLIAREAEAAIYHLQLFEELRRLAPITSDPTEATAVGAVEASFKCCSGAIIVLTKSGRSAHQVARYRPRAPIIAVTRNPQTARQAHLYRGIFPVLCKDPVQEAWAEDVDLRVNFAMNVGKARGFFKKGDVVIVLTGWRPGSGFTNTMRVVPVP", "test": "PKM2 Assay (activation; LDH-coupled, NADH absorbance at 340 nm)", "type": "biochemical", "conditions": "PKM2 50 ng/well, ADP 0.7 mM, PEP 0.15 mM, no FBP in Reaction Mix", "description": "• PKM2 stock enzyme solution was diluted in Reaction Buffer • 2 μL of compound was added into each well first, and then 180 μL of the Reaction Mix was added. • Reaction mixture with compound (without ADP) were incubated for 30 minutes at 4° C. • Plates were re-equilibrated to room temperature prior to adding 20 μL ADP to initiate the reaction. • Reaction progress was measured as changes in absorbance at 340 nm wavelength at room temperature (25° C.) Reaction Mix: PKM2 (50 ng/well), ADP (0.7 mM), PEP (0.15 mM), NADH (180 μM), LDH (2 units) in Reaction Buffer Reaction Buffer: 100 mM KCl, 50 mM Tris pH 7.5, 5 mM MgCl2, 1 mM DTT, 0.03% BSA.", "units": {"AC50": "µM"}}
{"smiles": "Cc1cc(C)cc(NS(=O)(=O)c2cc3c(cc2C)oc(=O)n3C)c1", "AC50": "< 1"}
{"smiles": "Cc1cc2oc(=O)n(C)c2cc1S(=O)(=O)Nc1ccc(Cl)c(F)c1", "AC50": "1 to 10"}
{"smiles": "O=c1oc2cc(S(=O)(=O)Nc3ccc(F)cc3)ccc2n1Cc1ccccc1", "AC50": "1 to 10"}
{"smiles": "COc1ccc(Cl)cc1S(=O)(=O)Nc1cc2c(cc1C)oc(=O)n2C", "note": "[drawing 47]", "AC50": "< 1"}
{"smiles": "Cc1cc2oc(=O)n(C)c2cc1S(=O)(=O)N1CCN(c2ccc(C(F)(F)F)cn2)CC1", "AC50": "1 to 10"}
{"smiles": "Cc1cc2c(cc1S(=O)(=O)N1CCN(c3ccc(C(F)(F)F)cn3)CC1)oc(=O)n2C", "AC50": "1 to 10"}
{"smiles": "Cc1cc2oc(=O)n(C)c2cc1S(=O)(=O)Nc1cc(F)cc(F)c1", "AC50": "1 to 10"}
{"smiles": "CC(=O)Nc1ccc(NS(=O)(=O)c2cc3c(cc2C)oc(=O)n3C)cc1", "AC50": "> 100"}
{"smiles": "O=c1sc2ccc(S(=O)(=O)Nc3ccc(F)cc3)cc2s1", "AC50": "10 to 50"}
{"smiles": "COc1ccc(Cl)cc1S(=O)(=O)Nc1cc2c(cc1F)oc(=O)n2C", "AC50": "10 to 50"}
{"smiles": "Cc1cc2c(cc1S(=O)(=O)N1CCN(C(=O)COc3ccccc3)CC1)oc(=O)n2C", "AC50": "> 100"}
{"smiles": "Cn1c(=O)oc2cc(S(=O)(=O)Nc3cc(F)cc(Cl)c3)ccc21", "AC50": "< 1"}
{"smiles": "Cn1c(=O)oc2cc(F)c(S(=O)(=O)Nc3ccc(Cl)cc3)cc21", "AC50": "1 to 10"}
{"smiles": "CCn1c(=O)sc2ccc(NS(=O)(=O)c3cc(C)ccc3OC)cc21", "AC50": "1 to 10"}
{"smiles": "Cn1c(=O)sc2cc(NS(=O)(=O)c3cccs3)ccc21", "AC50": "10 to 50"}
{"smiles": "CCn1c(=O)oc2cc(Cl)c(S(=O)(=O)Nc3ccc(Cl)cc3)cc21", "AC50": "1 to 10"}
{"smiles": "Cc1cc2c(cc1NS(=O)(=O)c1cccs1)oc(=O)n2C", "AC50": "10 to 50"}
{"smiles": "Cc1cc2sc(=O)sc2cc1S(=O)(=O)Nc1ccccc1", "AC50": "< 1"}
{"smiles": "Cn1c(=O)sc2cc(S(=O)(=O)Nc3cccc4ncccc34)ccc21", "AC50": "1 to 10"}
{"smiles": "COCCn1c(=O)oc2cc(C)c(S(=O)(=O)Nc3ccc(F)c(C)c3)cc21", "AC50": "1 to 10"}
{"smiles": "Cc1cc2sc(=O)sc2cc1S(=O)(=O)NC1CCCCC1", "AC50": "10 to 50"}
{"smiles": "Cn1c(=O)oc2cc(S(=O)(=O)Nc3ccc(Cl)cc3)ccc21", "AC50": "1 to 10"}
{"smiles": "Cn1c(=O)sc2ccc(NS(=O)(=O)c3cccs3)cc21", "AC50": "10 to 50"}
{"smiles": "Cn1c(=O)oc2cc(F)c(S(=O)(=O)N3CCN(S(=O)(=O)c4ccc5c(c4)OCCO5)CC3)cc21", "AC50": "< 1"}
{"smiles": "COc1ccc(Cl)cc1S(=O)(=O)Nc1ccc(NS(=O)(=O)c2cc3c(cc2C)oc(=O)n3C)cc1", "AC50": "> 100"}
{"smiles": "Cc1cc2c(cc1S(=O)(=O)N1CCN(S(=O)(=O)c3c(F)cccc3F)CC1)oc(=O)n2C", "AC50": "1 to 10"}
{"smiles": "Cn1c(=O)sc2cc(S(=O)(=O)Nc3ccc(F)cc3)ccc21", "AC50": "< 1"}
{"smiles": "Cn1c(=O)oc2cc(Cl)c(NS(=O)(=O)c3cccc(Cl)c3)cc21", "AC50": "10 to 50"}
{"smiles": "O=c1oc2cc(S(=O)(=O)Nc3ccc(F)cc3)ccc2n1CCc1ccccc1", "AC50": "1 to 10"}
{"smiles": "Cc1cc(NS(=O)(=O)c2cc(CN3CCOCC3)c3c(c2)oc(=O)n3C)ccc1F", "AC50": "1 to 10"}
{"smiles": "Cc1cc(C)cc(NS(=O)(=O)c2cc3oc(=O)n(C)c3cc2F)c1", "AC50": "< 1"}
{"smiles": "CCn1c(=O)oc2cc(C)c(S(=O)(=O)Nc3cc(Cl)ccc3OC)cc21", "AC50": "10 to 50"}
{"smiles": "Cn1c(=O)oc2cc(S(=O)(=O)N3CCN(S(=O)(=O)c4ccc5ccccc5c4)CC3)ccc21", "AC50": "< 1"}
{"smiles": "Cn1c(=O)oc2cc(S(=O)(=O)Nc3cccc4ncccc34)ccc21", "AC50": "10 to 50"}
{"smiles": "O=c1[nH]c2cc(NS(=O)(=O)c3cccc(Cl)c3)c(Cl)cc2o1", "AC50": "10 to 50"}
{"smiles": "Cn1c(=O)oc2cc(S(=O)(=O)Nc3ccc(OC(F)(F)F)c(Cl)c3)ccc21", "AC50": "1 to 10"}
{"smiles": "Cn1c(=O)oc2cc(S(=O)(=O)Nc3ccc(F)cc3)ccc21", "AC50": "1 to 10"}
{"smiles": "Cc1cc2oc(=O)n(C)c2cc1NS(=O)(=O)c1ccc(F)cc1", "AC50": "10 to 50"}
{"smiles": "COc1ccc(C)cc1S(=O)(=O)Nc1cc2[nH]c(=O)oc2cc1C", "AC50": "10 to 50"}
{"smiles": "COCCn1c(=O)oc2cc(S(=O)(=O)Nc3ccc(F)c(C)c3)cc(C)c21", "AC50": "< 1"}
{"smiles": "Cc1cc2c(cc1S(=O)(=O)N1CCN(C(=O)COc3ccc(-n4cnnn4)cc3)CC1)oc(=O)n2C", "AC50": "10 to 50"}
{"smiles": "Cn1c(=O)oc2cc(S(=O)(=O)Nc3ccc4c(c3)OCCO4)ccc21", "AC50": "1 to 10"}
